US9850283B2, “Macrocyclic inhibitors of the PD-1/PD-L1 and CD80(B7-1)/PD-L1 protein/protein interactions” (BRISTOL-MYERS SQUIBB COMPANY, priority 2013, dated 2017)
Like-named read-outs stand apart in the source and are kept apart here. Starred links: 1 amine or outer side, 2 acyl side, 3 side chain; linkers in the order of their positions; H or OH if unused. Positions of bridges follow the written chain, without caps; N, C: chain ends. Non-standard residues stand in square brackets, D forms with d. Residues, ends and D or L forms follow the SMILES beside them. ξ: configuration not given here. X6 = O=C([C@H](Cc1c(-c2ccc(F)cc2)[nH]c2ccccc12)N[*:1])[*:2]; Trp(5-Cl) = N[C@@H](Cc1c[nH]c2ccc(Cl)cc12)C(=O)O; Phe(2-Me) = Cc1ccccc1C[C@H](N)C(=O)O; Bta = N[C@@H](Cc1csc2ccccc12)C(=O)O; Hyp = O=C(O)[C@@H]1C[C@@H](O)CN1; NMeF = CN[C@@H](Cc1ccccc1)C(=O)O; NMeNle = CCCC[C@H](NC)C(=O)O; ξR = N=C(N)NCCCC(N)C(=O)O; NMeA = CN[C@@H](C)C(=O)O; Nle = CCCC[C@H](N)C(=O)O; Orn = NCCC[C@H](N)C(=O)O; Dap = NC[C@H](N)C(=O)O; ξC = NC(CS)C(=O)O; Sar = CNCC(=O)O

Experiments:
Human PD-L1/PD-1 = target: T1, Human PD-L1/PD-1 (Homo sapiens, UniProt Q9NZQ7); test: HTRF PD-1-Ig/PD-L1-His binding assay (human PD-L1); settings: cluster symbol; read-out: HTRF IC50 cluster
T1 construct: made in house; host or cells: HEK293T
T1 sequence (Q9NZQ7 with tags, fused parts or gaps): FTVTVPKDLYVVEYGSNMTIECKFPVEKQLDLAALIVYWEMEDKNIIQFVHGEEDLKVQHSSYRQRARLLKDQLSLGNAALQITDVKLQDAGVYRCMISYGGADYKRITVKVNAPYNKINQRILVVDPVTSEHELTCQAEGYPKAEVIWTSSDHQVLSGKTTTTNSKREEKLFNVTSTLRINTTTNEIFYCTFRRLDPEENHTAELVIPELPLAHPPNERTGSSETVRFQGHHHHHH
Method in brief: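 Ig- and His-fused extracellular PD-1/PD-L1 binding in BSA/Tween-20 dPBS. HTRF with Eu anti-Ig (1 nM final) and APC anti-His (20 nM final).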

[1] = target: T2, LK35.2-hPD-L1 cells / PE-labeled PD-1-Ig (Homo sapiens, UniProt Q9NZQ7); test: LK35.2-hPD-L1 cell binding high-content screening assay; format: cell-based; settings: cluster symbol, read-out: CBA IC50 cluster
T2 construct: expressed in transfected cells; host or cells: LK35.2 mouse B cell line
T2 sequence (Q9NZQ7 19-290): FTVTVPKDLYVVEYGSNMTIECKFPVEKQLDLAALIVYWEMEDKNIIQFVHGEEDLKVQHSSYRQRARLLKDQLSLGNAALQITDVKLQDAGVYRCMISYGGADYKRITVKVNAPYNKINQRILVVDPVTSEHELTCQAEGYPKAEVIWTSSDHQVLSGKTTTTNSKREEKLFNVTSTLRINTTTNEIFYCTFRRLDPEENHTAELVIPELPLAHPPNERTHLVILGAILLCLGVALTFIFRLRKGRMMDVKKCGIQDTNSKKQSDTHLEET
Procedure: LK35.2-hPD-L1 Cell Binding High-Content Screening Assay. Phycoerythrin (PE) was covalently linked to the Ig epitope tag of human PD-1-Ig and fluorescently-labeled PD-1-Ig was used for binding studies with a mouse B cell line (LK35.2) stably over-expressing human PD-L1 (LK35.2-hPD-L1). Briefly, 3×10^3 LK35.2-hPD-L1 cells were seeded into 384 well plates in 20 ul of RPMI supplemented with 10% fetal calf serum and cultured overnight. 125 nl of compound was added to cells, followed by 5 ul of PE-labeled PD-1-Ig (1 nM final), diluted in RPMI supplemented with 10% fetal calf serum, followed by incubation at 37° C. for 1 h. […] Cells were washed 3× in 100 ul of dPBS followed by final addition of 15 ul of dPBS. Data was collected and processed using a Cell Insight NXT High Content Imager and associated software.

[2] = cell binding assay, cell line not given
[3] = cell line of CBA not given (LK35.2-hPD-L1 or 293T-hPD-L1)

Compound | IC50 (Human PD-L1/PD-1) [nM] | IC50 [1, 2] [nM] | IC50 [1, 3] [nM]
CCCC[C@H]1C(=O)N(C)CC(=O)N[C@@H](CC(=O)O)C(=O)N[C@@H](C(C)C)C(=O)N(C)[C@@H](Cc2ccccc2)C(=O)N[C@@H](Cc2c[nH]c3ccc(Cl)cc23)C(=O)N(C)CC(=O)N[C@@H](Cc2c[nH]c3ccccc23)C(=O)N[C@@H](Cc2ccc(O)cc2)C(=O)N[C@@H](CC(C)C)C(=O)N[C@H](C(=O)NCC(N)=O)CSCC(=O)N[C@@H](Cc2ccccc2)C(=O)N(C)[C@@H](Cc2ccccc2)C(=O)N1C [Example 3109] ({CH2CO}-F[NMeF][NMeNle][Sar]DV[NMeF][Trp(5-Cl)][Sar]WYLCG-NH2; thioether N-13) | > 30.5 | – | 4.78 to 72.9
CCCC[C@H]1C(=O)N(C)[C@@H](CCCC)C(=O)N[C@@H](CCCNC(=N)N)C(=O)N[C@H](C(=O)NCC(N)=O)CSCC(=O)N[C@@H](Cc2ccccc2C)C(=O)N(C)[C@@H](C)C(=O)N[C@@H](CC(N)=O)C(=O)N2CCC[C@H]2C(=O)N[C@@H](Cc2cnc[nH]2)C(=O)N[C@@H](CC(C)C)C(=O)N(C)CC(=O)N[C@@H](Cc2c[nH]c3ccccc23)C(=O)N[C@@H](CO)C(=O)N[C@@H](Cc2c[nH]c3ccccc23)C(=O)N1C [Example 1106] ({CH2CO}-[Phe(2-Me)][NMeA]NPHL[Sar]WSW[NMeNle][NMeNle]RCG-NH2; thioether N-14) | 6.76 to 30.3 | – | 4.78 to 72.9
CCCC[C@H]1C(=O)N(C)CC(=O)N[C@@H](CC(=O)O)C(=O)N[C@@H](C(C)C)C(=O)N(C)[C@@H](Cc2ccccc2)C(=O)N[C@@H](Cc2ccc(O)cc2)C(=O)N(C)CC(=O)N[C@@H](CCC(=O)O)C(=O)N[C@@H](Cc2ccc(O)cc2)C(=O)N[C@@H](CC(C)C)C(=O)N[C@H](C(=O)NCC(N)=O)CSCC(=O)N[C@@H](Cc2ccccc2)C(=O)N(C)[C@@H](Cc2ccccc2)C(=O)N1C [Example 3072] (HELM PEPTIDE1{[O=C(C[*:3])[*:2]].F.[meF].[CCCC[C@@H](C(=O)[*:2])N(C)[*:1]].[Sar].D.V.[meF].Y.[Sar].E.Y.L.C.G.[am]}$PEPTIDE1,PEPTIDE1,1:R3-14:R3$$$V2.0) | > 30.5 | – | > 74.3

The remaining lines, values ahead:

IC50 (Human PD-L1/PD-1) [nM] | IC50 [1, 2] [nM] | IC50 [1, 3] [nM] | Compound
6.76 to 30.3 | 4.78 to 72.9 | – | CCCC[C@H]1C(=O)N2CCC[C@@H]2C(=O)N[C@@H](CCCN)C(=O)N[C@H](C(=O)NCC(N)=O)CSCC(=O)N[C@@H](Cc2ccc(O)cc2)C(=O)N(C)[C@@H](C)C(=O)N[C@@H](CC(N)=O)C(=O)N2CCC[C@H]2C(=O)N[C@@H](Cc2cnc[nH]2)C(=O)N[C@@H](CC(C)C)C(=O)N2CCC[C@H]2C(=O)N[C@@H](Cc2c[nH]c3ccccc23)C(=O)N[C@@H](CO)C(=O)N[C@@H](Cc2csc3ccccc23)C(=O)N1C [Example 5010] ({CH2CO}-Y[NMeA]NPHLPWS[Bta][NMeNle][dP][Orn]CG-NH2; thioether N-14)
6.76 to 30.3 | 4.78 to 72.9 | – | CCCC[C@@H]1NC(=O)[C@H](Cc2cnc[nH]2)NC(=O)[C@@H]2CCCN2C(=O)[C@H](CC(N)=O)NC(=O)[C@H](C)N(C)C(=O)[C@H](Cc2ccc(O)cc2)NC(=O)CSCC(C(=O)NCC(N)=O)NC(=O)[C@H](CCCNC(=N)N)NC(=O)[C@H](CCCC)N(C)C(=O)[C@H](CCCC)N(C)C(=O)[C@H](Cc2csc3ccccc23)NC(=O)[C@H](CO)NC(=O)[C@H](Cc2c[nH]c3ccccc23)NC(=O)[C@H]2CCCN2C1=O (stereo partly drawn) [Example 9002] ({CH2CO}-Y[NMeA]NPH[Nle][dP]WS[Bta][NMeNle][NMeNle]R[ξC]G-NH2; thioether N-14)
0.385 to 6.74 | 0.158 to 4.71 | – | CCCC[C@H]1C(=O)N(C)[C@@H](CCCC)C(=O)NC(CCCNC(=N)N)C(=O)N[C@H](C(=O)NCC(N)=O)CSCC(=O)N[C@@H](Cc2ccc(O)cc2)C(=O)N(C)[C@@H](C)C(=O)N[C@@H](CC(N)=O)C(=O)N2CCC[C@H]2C(=O)N[C@@H](CN)C(=O)N[C@@H](CC(C)C)C(=O)N2C[C@H](O)C[C@H]2C(=O)N[C@@H](Cc2c[nH]c3ccccc23)C(=O)N[C@@H](CO)C(=O)N[C@@H](Cc2c(-c3ccc(F)cc3)[nH]c3ccccc23)C(=O)N1C (stereo partly drawn) [Example 7002] ({CH2CO}-Y[NMeA]NP[Dap]L[Hyp]WS[X6][NMeNle][NMeNle][ξR]CG-NH2; thioether N-14)
